The target in test [1] is T1, Indoleamine 2,3-dioxygenase 1 (Homo sapiens, UniProt P14902). Kind of test: Inhibition of recombinant human IDO1 assessed as N-formylkynurenine formation using L-tryptophan as substrate measured after 1 hr by UV-vis spectrophotometric analysis.
Test [2] deals with Tryptophan 2,3-dioxygenase (Homo sapiens, UniProt P48775). Kind of test: Inhibition of recombinant human TDO assessed as N-formylkynurenine formation using L-tryptophan as substrate measured after 1 hrs by UV-vis spectrophotometric analysis.
Tryptophan 2,3-dioxygenase, sequence (P48775 whole entry): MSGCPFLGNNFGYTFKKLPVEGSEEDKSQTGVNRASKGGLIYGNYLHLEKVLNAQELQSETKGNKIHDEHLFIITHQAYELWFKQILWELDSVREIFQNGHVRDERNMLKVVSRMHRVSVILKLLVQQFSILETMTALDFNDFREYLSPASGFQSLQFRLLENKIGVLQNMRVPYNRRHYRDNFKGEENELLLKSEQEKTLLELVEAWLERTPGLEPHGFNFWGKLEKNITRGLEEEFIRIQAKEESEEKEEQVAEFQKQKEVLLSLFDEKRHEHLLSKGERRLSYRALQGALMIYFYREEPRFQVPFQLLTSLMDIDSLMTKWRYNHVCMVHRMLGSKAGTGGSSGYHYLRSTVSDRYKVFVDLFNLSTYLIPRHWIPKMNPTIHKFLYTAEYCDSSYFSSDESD
In test [3] the target is T1, Indoleamine 2,3-dioxygenase 1. Kind of test: Inhibition of human IDO1 in IFN-gamma-induced human MDA-MB-231 cells assessed as N-formylkynurenine formation using L-tryptophan as substrate pretreated for 4 hrs followed substrate addition measured after 5 hrs by UV-vis spectrophotometric analysis. The class given is cell-based.
For test [4] the target is unchanged. Put plainly: Inhibition of recombinant human IDO1 assessed as N-formylkynurenine formation using L-tryptophan as substrate measured after 1.5 hrs by HPLC analysis.

The term IC50 denotes the midpoint of a concentration-inhibition curve.

SMILES strings stand for the structures.

T1 sequence (P14902 whole entry): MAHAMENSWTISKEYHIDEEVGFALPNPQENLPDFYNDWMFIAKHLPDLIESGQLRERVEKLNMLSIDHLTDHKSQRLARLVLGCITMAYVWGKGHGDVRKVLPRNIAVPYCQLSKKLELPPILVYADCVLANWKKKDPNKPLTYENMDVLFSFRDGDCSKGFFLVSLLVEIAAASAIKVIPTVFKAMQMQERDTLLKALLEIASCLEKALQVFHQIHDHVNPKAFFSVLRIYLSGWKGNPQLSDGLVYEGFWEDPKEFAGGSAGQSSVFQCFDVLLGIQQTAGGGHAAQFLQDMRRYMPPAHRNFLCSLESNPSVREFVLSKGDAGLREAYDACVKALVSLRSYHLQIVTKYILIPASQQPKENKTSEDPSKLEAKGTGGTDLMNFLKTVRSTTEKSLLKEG

As to `O=[N+]([O-])c1ccc(N/C(Cc2ccc(F)cc2F)=N\O)c2nonc12`, the IC50 in test [1] was 160 nM; in test [2], 19 µM.
As to `O=[N+]([O-])c1ccc(N/C(=N\O)c2ccccc2F)c2nonc12`, the half-inhibitory concentration (IC50) amounted to 63 nM in test [1], 131 nM in test [3], 56 nM in test [4] and 110 µM in test [2].
As for `O=[N+]([O-])c1ccc(N/C(Cc2ccc(F)cc2)=N\O)c2nonc12`, the IC50 stood at 98 nM in test [1], 151 nM in test [3], 73 nM in test [4] and 65 µM in test [2].
Turning to `O=[N+]([O-])c1ccc(N/C(Cc2ccccc2F)=N\O)c2nonc12`, the IC50 worked out at 102 nM in test [1], 131 nM in test [3], 75 nM in test [4] and 30 µM in test [2].
Consider `O=[N+]([O-])c1ccc(N/C(=N\O)c2ccc(Br)cc2)c2nonc12`, for which the concentration for half-maximal inhibition (IC50) in test [1] was 117 nM; in test [2], 50 µM.
Consider `O=[N+]([O-])c1ccc(N/C(Cc2ccc(Cl)cc2)=N\O)c2nonc12`, for which the IC50 in test [1] amounted to 127 nM; in test [3] it was 110 nM; in test [4] it was 78 nM; in test [2], 51 µM.
For the compound `O=[N+]([O-])c1ccc(N/C(=N\O)c2cccc(Cl)c2)c2nonc12`, the half-inhibitory concentration (IC50) in test [1] was 184 nM.
In the case of `O=[N+]([O-])c1ccc(N/C(=N\O)c2ccccc2)c2nonc12`, the concentration for half-maximal inhibition (IC50) in test [1] was found to be 268 nM.
On the same count and under the same terms, to `O=[N+]([O-])c1ccc(N/C(Cc2cccc(Cl)c2)=N\O)c2nonc12` belongs 199 nM.
As to `O=[N+]([O-])c1ccc(N/C(=N\O)c2ccc(F)c(Br)c2)c2nonc12`, the IC50 in test [1] stood at 92 nM; in test [3], 107 nM; in test [4], 106 nM; in test [2], 47 µM.
With `O=[N+]([O-])c1ccc(N/C(=N\O)c2cccc(F)c2)c2nonc12`, the concentration for half-maximal inhibition (IC50) in test [1] worked out at 75 nM; in test [3], 245 nM; in test [4], 84 nM; in test [2], 45 µM.
For `O=[N+]([O-])c1ccc(N/C(Cc2cccc(F)c2)=N\O)c2nonc12`, the half-inhibitory concentration (IC50) in test [1] was 131 nM.
Same read-out and setting: in the case of `O=[N+]([O-])c1ccc(N/C(=N\O)c2ccccc2Cl)c2nonc12` it was 135 nM; in that of `COc1ccc(C/C(=N/O)Nc2ccc([N+](=O)[O-])c3nonc23)cc1`, 128 nM.
On to `O=[N+]([O-])c1ccc(N/C(=N\O)c2ccc(Cl)cc2)c2nonc12`, for which the IC50 amounted to 113 nM in test [1] and 40 µM in test [2].
With `O=[N+]([O-])c1ccc(N/C(Cc2ccccc2)=N\O)c2nonc12`, in test [1], the 50% inhibitory concentration (IC50) was found to be 307 nM.
`O=[N+]([O-])c1ccc(N/C(Cc2ccc(Cl)c(Cl)c2)=N\O)c2nonc12`: the 50% inhibitory concentration (IC50) is 39 nM in test [1], 71 nM in test [3], 53 nM in test [4] and 32 µM in test [2].
The like results for `O=[N+]([O-])c1ccc(N/C(Cc2ccc(F)c(F)c2)=N\O)c2nonc12` were, in that order, 59 nM, 50 nM, 49 nM and 94 µM.
Consider `Cc1cccc(/C(=N/O)Nc2ccc([N+](=O)[O-])c3nonc23)c1`, for which the half-maximal inhibitory concentration (IC50) in test [1] turned out to be 163 nM.
As to `O=[N+]([O-])c1ccc(N/C(=N\O)c2ccccc2Br)c2nonc12`, the IC50 in test [1] is 80 nM; in test [3], 66 nM; in test [4] it was 64 nM; in test [2], 25 µM.
For `Cc1ccc(/C(=N/O)Nc2ccc([N+](=O)[O-])c3nonc23)cc1`, in test [1], the IC50 worked out at 204 nM.
As to `O=[N+]([O-])c1ccc(N/C(=N\O)c2ccc(F)c(Cl)c2)c2nonc12`, in test [1], the IC50 is 158 nM.
For `O=[N+]([O-])c1ccc(N/C(=N\O)c2cccc(Br)c2)c2nonc12`, the IC50 in test [1] was found to be 105 nM; in test [2] it was 20 µM.
As to `O=[N+]([O-])c1ccc(N/C(=N\O)c2ccc(F)cc2)c2nonc12`, the 50% inhibitory concentration (IC50) in test [1] came to 100 nM; in test [3], 125 nM; in test [4], 60 nM; in test [2], 21 µM.
With `O=[N+]([O-])c1ccc(N/C(Cc2ccc(Br)cc2)=N\O)c2nonc12`, the IC50 in test [1] was 112 nM; in test [2], 43 µM.
Regarding `Nc1nonc1C(=NO)Nc1ccc(F)c(Cl)c1`, the IC50 in test [2] turned out to be 24 µM.

The values are drawn from ChEMBL document CHEMBL4715733, “Nitrobenzofurazan derivatives of N'-hydroxyamidines as potent inhibitors of indoleamine-2,3-dioxygenase 1” (Eur J Med Chem, 2016).
